Experimental data published in US20120316342A1, “THERAPEUTIC AGENT FOR HEPATITIS C” (priority 2010, published 2012).
“Also recorded” adds a separate entry of the source.

How the values were obtained:
Format in all cases: cell-based
[1] = test system: Subgenomic HCV RNA replicon cells (LucNeo#2) having a luciferase gene; assay: Anti-HCV activity using replicon cells (luciferase assay); settings: luciferase assay; for EC50: LucNeo#2 subgenomic replicon cells, 3 days, read-out: EC50; for anti-HCV activity (in words): Table 2, FIGS. 13 to 15
Protocol: Subgenomic HCV RNA replicon cells (LucNeo#2, Goto et al., Biochem. Biophys. Res. Commun., 2006, vol. 343, pp. 879-884) having a luciferase gene were suspended in a Dulbecco's modified Eagle medium (DMEM) containing 10% FBS and 1 mg/ml G418 (Sigma). The cells were incubated for 24 hours and then cultured in G418-free fresh media each containing test compounds at various concentrations for 3 days. In order to perform luciferase assays, the cells were washed with PBS and treated with a lysate for 10 minutes with intermittent agitation. A cell lysate (25 μl) was transferred to a white microtiter plate. Luciferase assay reagents (100 μl, Promega, Tokyo) were added to each well and the luciferase activity was measured with a luminometer.
(§1) Based on the luciferase assay results, the HCV genomic RNA level was measured, and a percentage (%) relative to the level of RNA of a control group to which the test compound was not administered was determined. Based on the results of tetrazolium staining, cell survival rates (%) of the group to which the test compound had been administered and of a control group were determined. The dose-response relationship of the test compound was analyzed based on the results of quantitative luciferase assays to determine EC50(μM), and the dose-response relationship of the test compound was analyzed based on the results of tetrazolium staining to determine CC50.

[2] = test system: Subgenomic HCV RNA replicon cells (LucNeo#2); assay: Cytotoxicity (cell survival rate) by tetrazolium staining in luciferase replicon cells; settings: for CC50: LucNeo#2 subgenomic replicon cells
Protocol: A tetrazolium staining solution (10 μl, Seikagaku Corporation, Tokyo) was added to each well in order to examine cytotoxicity (a cell survival rate). After the cells were incubated for 1 hour, the absorbance at the characteristic absorption wavelength (450 nm) was measured with the use of a microplate reader.
as §1

[3] = test system: NNC #2 (full-length replicon) cells; assay: Anti-HCV activity using full-length replicon cells (HCV genomic RNA, real-time RT-PCR); settings: FIGS. 3 to 6
Protocol: (§2) The 70% confluent #50-1 (subgenomic replion) cells or NNC #2 (full-length replicon) cells (Ishii et al., J. Virol., 2006, vol. 80, pp. 4510-4520) were dispersed in a culture bottle with the aid of trypsin, and the resulting dispersion was resuspended in a high-glucose Dulbecco's modified Eagle medium (DMEM) containing 10% FCS and 1 mg/ml G418 (Sigma) (see FIGS. 1 and 2). The cell suspension adjusted at 5×10^4 cells/ml with the use thereof was added to wells of a 96-well culture plate at 100 μl/well (the final cell density in each well: […]), and culture was conducted at 37° C. Supernatants of culture media were removed from wells of the plate on the following day, 200 μl each of the solutions of test compounds appropriately diluted with a G418-free culture solution were added, and culture was further continued. Samples were prepared from cells in each well 3 days later with the use of the TaqMan® Gene Expression Cell-to-CT® (Applied Biosystems). Reverse transcription was carried out in accordance with the protocols for the ABI 7500 PCR systems (Applied Biosystems) at 37° C. for 60 minutes, 95° C. for 5 minutes, and retained at 4° C. Real-time PCR was carried out in accordance with the protocols for the ABI 7500 real-time PCR systems (Applied Biosystems) at 50° C. for 2 minutes, 95° C. for 10 minutes, 40 cycles at 95° C. for 15 seconds, and 60° C. for 1 minute.
(§3) In accordance with the method mentioned above, the level of the HCV genomic RNA and, as the internal standard, the level of mRNA of glyceraldehyde-3-phosphate dehydrogenase (GAPDH) (a house keeping gene of the host cells) were assayed, and a percentage (%) relative to the level of RNA of a control group to which the test compound was not administered was determined. The dose-response relationship of the test compound was analyzed based on the measured level of the HCV genomic RNA to determine EC50, and the dose-response relationship of the test compound was analyzed based on the measured level of GAPDH RNA to determine CC50. The term “EC50” and “CC50” used herein refers to 50% effective concentration (μM) and 50% cytotoxic concentration (μM), respectively.

[4] = test system: #50-1 (subgenomic replion) cells; assay: Anti-HCV activity using subgenomic replicon cells (HCV genomic RNA, real-time RT-PCR); settings: concentration of 10 μM, relative to control group without test compound
Protocol: as §2, §3

SMILES | EC50 [1] [µM] | CC50 [2] [µM] | also measured
CCCCn1c(=O)c2ccc(OC)cc2c2cc(C(O)(C(F)(F)F)C(F)(F)F)ccc21 [KZ32, 5-butyl-2-(1′,1′,1′,3′,3′,3′-hexafluoro-2′-hydroxypropan-2′-yl)-9-methoxy-phenanthridin-6(5H)-one] | 16.6 | 28.9 | 
CCCCn1c(=O)c2cc(OC)ccc2c2cc(C(OCc3ccccc3)(C(F)(F)F)C(F)(F)F)c3c(c21)OCO3 [HA-758, 11-(2′-benzyloxy-1′,1′,1′,3′,3′,3′-hexafluoropropan-2′-yl)-4-butyl-7-methoxy-[1,3]-dioxolo[4,5-c]phenanthridin-5(4H)-one] | 1.71 | > 100 | anti-HCV activity (in words) [1]: high degree of anti-HCV activity at non-cytotoxic concentrations; also recorded: high degree of anti-HCV activity
CCCCn1c(=O)c2ccccc2c2cc(C(OCc3ccccc3)(C(F)(F)F)C(F)(F)F)c(OC)cc21 [KZ37, 2-(2′-benzyloxy-1′,1′,1′,3′,3′,3′-hexafluoropropan-2′-yl)-5-butyl-3-methoxy-phenanthridin-6(5H)-one] | 2.6 | > 100 | anti-HCV activity (in words) [1]: high degree of anti-HCV activity at non-cytotoxic concentrations; also recorded: high degree of anti-HCV activity
O=c1c2ccccc2c2cc(C(O)(C(F)(F)F)C(F)(F)F)ccc2n1CC1CCCCC1 [AA-26, 2-(1′,1′,1′,3′,3′,3′-hexafluoro-2′-hydroxypropan-2′-yl)-5-cyclohexylmethyl-phenanthridin-6(5H)-one] |  |  | anti-HCV activity (in words) [3]: high degree of anti-HCV activity
CCCCn1c(=O)c2cc(OC)ccc2c2cc(C(O)(C(F)(F)F)C(F)(F)F)c3c(c21)OCO3 [HA-719, 4-butyl-11-(1′,1′,1′,3′,3′,3′-hexafluoro-2′-hydroxypropan-2′-yl)-7-methoxy-[1,3]dioxolo[4,5-c]phenanthridin-5(4H)-one] | 0.05 | 6.4 | anti-HCV activity (in words) [1]: very high; also recorded: high degree of anti-HCV activity; cytotoxicity (in words) ([2]; Table 2): high degree of cytotoxicity
CCCCn1c(=O)c2ccccc2c2cc(C(O)(C(F)(F)F)C(F)(F)F)c3c(c21)OCO3 [HA-718, 4-butyl-1′-(1′,1′,1′,3′,3′,3′-hexafluoro-2′-hydroxypropan-2′-yl)-[1,3]dioxolo[4,5-c]phenanthridin-5(4H)-one] | 0.29 | 24.2 | 
CCCCn1c(=O)c2ccccc2c2c(O)c(C(O)(C(F)(F)F)C(F)(F)F)ccc21 [KZ35, 5-butyl-2-(1′,1′,1′,3′,3′,3′-hexafluoro-2′-hydroxypropan-2′-yl)-1-hydroxy-phenanthridin-6(5H)-one] | 44 | 52.3 | 
CCCCn1c(=O)c2ccccc2c2c(OC)c(C(OC)(C(F)(F)F)C(F)(F)F)cc(OC)c21 [KZ29, 5-butyl-2-(1′,1′,1′,3′,3′,3′-hexafluoro-2′-methoxypropan-2′-yl)-1,4-dimethoxy-phenanthridin-6(5H)-one] | 30.4 | > 100 | 
CCCCn1c(=O)c2cc(OC)ccc2c2cc(C(O)(C(F)(F)F)C(F)(F)F)c(OC)c(OC)c21 [HA-727, 5-butyl-2-(1′,1′,1′,3′,3′,3′-hexafluoro-2′-hydroxypropan-2′-yl)-3,4,8-trimethoxy-phenanthridin-6(5H)-one] | 1.8 | 6.8 | 
CCCCn1c(=O)c2c(OC)c(OC)ccc2c2cc(C(O)(C(F)(F)F)C(F)(F)F)ccc21 [KZ27, 5-butyl-2-(1′,1′,1′,3′,3′,3′-hexafluoro-2′-hydroxypropan-2′-yl)-7,8-dimethoxy-phenanthridin-6(5H)-one] | 5.5 | 14.2 | 
CCCCn1c(=O)c2cc(OC)c(OC)c(OC)c2c2cc(C(O)(C(F)(F)F)C(F)(F)F)ccc21 [KZ28, 5-butyl-2-(1′,1′,1′,3′,3′,3′-hexafluoro-2′-hydroxypropan-2′-yl)-8,9,10-trimethoxy-phenanthridin-6(5H)-one] | 8.3 | 9.4 | 
CCCCn1c(=O)c2cccc(OC)c2c2cc(C(O)(C(F)(F)F)C(F)(F)F)ccc21 [KZ33, 5-butyl-2-(1′,1′,1′,3′,3′,3′-hexafluoro-2′-hydroxypropan-2′-yl)-10-methoxy-phenanthridin-6(5H)-one] | 5 | 6.9 | 
CCCCn1c(=O)c2cc(OC)ccc2c2c(OC)c(C(OC)(C(F)(F)F)C(F)(F)F)cc(OC)c21 [KZ30, 5-butyl-2-(1′,1′,1′,3′,3′,3′-hexafluoro-2′-methoxypropan-2′-yl)-1,4,8-trimethoxy-phenanthridin-6(5H)-one] | 9.2 | > 100 | anti-HCV activity (in words) [1]: high degree of anti-HCV activity at non-cytotoxic concentrations
CCCCn1c(=O)c2cc3c(cc2c2cc(C(O)(C(F)(F)F)C(F)(F)F)ccc21)OCO3 [KZ26, 5-butyl-2-(1′,1′,1′,3′,3′,3′-hexafluoro-2′-hydroxypropan-2′-yl)-[1,3]dioxolo[4,5-j]phenanthridin-6(5H)-one] | 2.3 | > 100 | anti-HCV activity (in words) [1]: high degree of anti-HCV activity at non-cytotoxic concentrations
CCCCn1c(=O)c2ccccc2c2c(C(C)C)cccc21 [MN315-A, 5-butyl-1-isopropylphenanthridin-6(5H)-one] |  |  | HCV genomic RNA level [4]: 46.3%
CCCCn1c(=O)c2c(OC)c(OC)c(OC)cc2c2cc(C(O)(C(F)(F)F)C(F)(F)F)ccc21 [KZ39, 5-butyl-2-(1′,1′,1′,3′,3′,3′-hexafluoro-2′-hydroxypropan-2′-yl)-7,8,9-trimethoxy-phenanthridin-6(5H)-one] | > 2 | 2 | 
CCCCn1c(=O)c2ccccc2c2cc(C(O)(C(F)(F)F)C(F)(F)F)c(OC)cc21 [KZ36, 5-butyl-2-(1′,1′,1′,3′,3′,3′-hexafluoro-2-hydroxypropan-2′-yl)-3-methoxy-phenanthridin-6(5H)-one] | 2.2 | 5.7 | 
CCCCCCn1c(=O)c2ccccc2c2cc(C(O)(C(F)(F)F)C(F)(F)F)ccc21 [AA-25, 2-(1′,1′,1′,3′,3′,3′-hexafluoro-2′-hydroxypropan-2′-yl)-5-hexylphenanthridin-6(5H)-one] |  |  | anti-HCV activity (in words) [3]: high degree of anti-HCV activity
CCCCn1c(=O)c2cc(OC)c(OC)cc2c2cc(C(O)(C(F)(F)F)C(F)(F)F)ccc21 [KZ25, 5-butyl-2-(1′,1′,1′,3′,3′,3′-hexafluoro-2′-hydroxypropan-2′-yl)-8,9-dimethoxy-phenanthridin-6(5H)-one] | > 2.8 | 2.8 | 
CCCCn1c(=O)c2c(OC)cc(OC)cc2c2cc(C(O)(C(F)(F)F)C(F)(F)F)ccc21 [KZ38, 5-butyl-2-(1′,1′,1′,3′,3′,3′-hexafluoro-2′-hydroxypropan-2′-yl)-7,9-dimethoxy-phenanthridin-6(5H)-one] | 2.6 | 8.2 | 
CCCCn1c(=O)c2ccccc2c2cc(C(O)(C(F)(F)F)C(F)(F)F)c(OC)c(OC)c21 [HA-726, 5-butyl-2-(1′,1′,1′,3′,3′,3′-hexafluoro-2′-hydroxypropan-2′-yl)-3,4-dimethoxy-phenanthridin-6(5H)-one] | 2.6 | 10.4 | 
CCCCn1c(=O)c2ccccc2c2ccc(C(C)C)cc21 [MN315-B, 5-butyl-3-isopropylphenanthridin-6(5H)-one] |  |  | HCV genomic RNA level [4]: 14.7%
CCCCn1c(=O)c2c(OC)cccc2c2cc(C(O)(C(F)(F)F)C(F)(F)F)ccc21 [KZ31, 5-butyl-2-(1′,1′,1′,3′,3′,3′-hexafluoro-2′-hydroxypropan-2′-yl)-7-methoxy-phenanthridin-6(5H)-one] | 10 | 12.6 | 
